{
  "source": "patent US20210381022A1",
  "about": "“INTEGRATED DRUG DISCOVERY PLATFORM FOR INBORN ERROR OF METABOLISM DISORDERS” (RAMOT AT TEL-AVIV UNIVERSITY LTD., priority 2018, published 2021)",
  "key": {"gcv1Δ cells": {"tested_on": "gcv1Δ cells", "conditions": "SD media with glycine"}, "fah-1 RNAi treated worms": {"tested_on": "fah-1 RNAi treated worms", "assay": "C. elegans model for Tyrosinemia (fah-1 RNAi)", "assay_type": "in vivo, Caenorhabditis elegans", "conditions": "fah-1 RNAi, tyrosine added, EGCG added", "procedure": "(§1) Wild-type N2, RB857 and NL2099 worms were obtained from the Caenorhabditis Genetics Center. RNAi clones was obtained from the Ahringer RNAi library as previously described [Fisher A L, et al., J. Biol. Chem. 283: 9127-9135(2008)]. Worms were grown on NGM media without peptone and the metabolites were added into a boiling media. Baicalein and EGCG were added to a media after cooled down to 45 degrees.\nMutations in different enzymes that are involved in the tyrosine degradation pathway are responsible for different types of Tyrosinemia. The tyrosine degradation pathway in mammals and C. elegans in conserved and the most severe is type I Tyrosinemia, which is caused by mutations affecting the last enzyme in the pathway, fumarylacetoacetate hydrolase (FAH). To study Tyrosinemia in C. elegans model, an RNAi was used that specifically silences the fumarylacetoacetate hydrolase (fah-1), as was previously reported (K10C4.2). RNAi directed against fah-1 causes severe phenotype of reduced size, impaired fertility and reduction of total number of viable worms (FIG. 32)."}, "[1]": {"tested_on": "tyrosine aggregates in aro3Δ mutant cells", "assay": "Flow cytometry with ProteoStat staining of aro3Δ mutant", "assay_type": "cell-based, Saccharomyces cerevisiae", "conditions": "tyrosine 0.02 mM, EGCG 5 mM", "procedure": "An amount of 1 mL of logarithmic cells were washed with PBS buffer and sonicated using 15 s pulses at 20% power. For each sample, 2*10^6 cells were resuspended with ProteoStat dye (Enzo Life Sciences) diluted 1:3000 in ProteoStat assay buffer. Cells were incubated for 15 min at room temperature protected from light. Flow cytometry was preformed using Stratedigm S1000EXi and the CellCapTure software (Stratedigm, San Jose, Calif.). Live cells were gated (P1) by forward scatter and side scatter. Fluorescence channels for FITC (530/30) and PE-Cy5 (676/29) were used utilizing a 488 nm laser source. A total of 50,000 events were acquired for each sample. Analyses were performed using FlowJo software (TreeStar, version 10).\nIn order to examine whether the inhibition in cell growth in a non-linear cooperative manner upon tyrosine feeding (FIG. 23A, 23B) is associated with in vivo formation of amyloid-like assemblies, cells were stained with ProteoStat®, a well-established amyloid-specific fluorescent dye that was previously shown to detect the presence of intracellular protein amyloid-like aggregates in living bacterial cells with high specificity, even when the target proteins are expressed at low levels.\nIn order to examine the effect of EGCG on cell growth, the aro3Δ mutant was spotted on 4a.a SD plates that contained tyrosine alone or tyrosine with different concentrations of EGCG. […]"}, "wild-type strain": {"tested_on": "wild-type strain", "assay": "Yeast growth assay of wild-type strain", "assay_type": "cell-based, Saccharomyces cerevisiae", "conditions": "tyrosine in media, EGCG added", "procedure": "(§2) Strains were grown over night at 30° C. in SD medium without adenine. For spotting assays, strains were diluted to 6.25*10^7 cells/mL and were then 5-fold serially diluted and spotted on SD media with the indicated concentrations of adenine or TA (Sigma-Aldrich). Plates were incubated at 30° C. for 2 days. […] For OD600 measurements, strains were diluted to OD600 0.01, 200 μL of cells were platted on 96 wells plates and incubated at 30° C. for 25 hours with continuous shaking. OD600 was measured using Tecan™ SPARK 10M plate reader."}, "phenylalanine assemblies": {"tested_on": "phenylalanine assemblies", "conditions": "reference [4]; cited from earlier work"}, "aro3Δ mutant": {"tested_on": "aro3Δ mutant", "assay": "Yeast growth assay of aro3Δ mutant with tyrosine feeding", "assay_type": "cell-based, Saccharomyces cerevisiae", "procedure": "as §2\nThe focus was put on a strain with a deletion of the ARO3 gene in which a significant decrease in cellular growth was observed upon tyrosine feeding (see FIG. 21). The inventors aimed to determine whether the toxic effect was influenced by different levels of tyrosine. Thus, the cellular growth of wild-type and the aro3Δ mutant was examined by serial dilutions on selective plates that were supplemented with different concentrations of tyrosine (FIG. 21A). In addition, cellular growth was also examined by measuring the turbidity of the medium upon addition of the indicated concentration of tyrosine (FIG. 21B). […] Thus, cell growth is affected by tyrosine levels in a dose-dependent manner which further supports the notion that the toxicity in the aro3Δ mutant results from the presence of tyrosine.\nIn order to examine the effect of EGCG on cell growth, the aro3Δ mutant was spotted on 4a.a SD plates that contained tyrosine alone or tyrosine with different concentrations of EGCG. […] Thus, the lag phase in the presence of EGCG was nearly the same as cells unexposed to tyrosine, indicating the potent ability of EGCG to eliminate the tyrosine sensitivity of the aro3Δ mutant. […] Next, the inventors aimed to gain additional insights into the effect of EGCG on the amyloid-like fibrils formed by the accumulation of tyrosine in the aro3Δ mutant cells. For that purpose, cells were stained with the amyloid-specific dye ProteoStat®, and FACS was applied to detect tyrosine aggregates. […] (FIG. 25)."}, "[2]": {"tested_on": "RB857 (PAH-1 mutant) and N2 (WT) worms", "assay": "C. elegans model for PKU", "assay_type": "in vivo, Caenorhabditis elegans", "procedure": "as §1\nTo study PKU in C. elegans model, a strain was used with mutation in the PAH-1 gene (RB857)]. […] Next, the effect of one of the previously identified hits i.e. baicalein was examined on the development of worms. The life cycle of C. elegans is comprised of the embryonic stage, four larval stages (L1-L4) and adulthood. The end of each larval stage is marked with a molt, during which a new, stage-specific cuticle is synthesized and the old one is shed."}, "aro4Δ mutant": {"tested_on": "aro4Δ mutant", "assay": "Yeast growth assay of aro4Δ mutant with phenylalanine", "assay_type": "cell-based, Saccharomyces cerevisiae", "conditions": "SD medium with phenylalanine", "source_text": "The focus was put on a strain with a deletion of the ARO4 gene. The inventors aimed to determine whether the toxic effect is influenced by phenylalanine feeding. Thus, the cellular growth of wild-type and the aro4Δ mutant was examined by serial dilutions on selective plates that were supplemented with phenylalanine. In addition, cellular growth was also examined by measuring the turbidity of the medium upon addition of phenylalanine (FIG. 26A, 26B)."}, "lat1Δ": {"tested_on": "lat1Δ", "assay": "Yeast growth assay of lat1Δ with isoleucine", "assay_type": "cell-based, Saccharomyces cerevisiae", "conditions": "minimal media with isoleucine, 40 h", "procedure": "Growth curves of WT and lat1Δ on minimal media with or without […] isoleucine. Cells were incubated at 30° C. for 40 h, with continuous shaking.\nTo establish an in vivo model in yeast for the study of BCAA accumulation and toxicity, the LAT1 gene was disrupted. LAT1 encodes the dihydrolipoamide acetyltransferase component (E2) of the yeast pyruvate dehydrogenase complex. LAT1 catalyzes the oxidative decarboxylation of pyruvate to acetyl-CoA and mutations in DBT1, the human homolog, can lead to Maple Syrup Urine Disease (MSUD)."}},
  "note": "Entries after “also recorded” stand apart in the source; their conditions may differ.",
  "data": [
    {"smiles": "NCC(=O)O", "note": "[glycine]", "values": [
      {"measurement": "growth with glycine in the growth medium", "setting": "gcv1Δ cells", "value": "dose-dependent growth inhibition"}
    ]},
    {"smiles": "O=C(O[C@@H]1Cc2c(O)cc(O)cc2O[C@@H]1c1cc(O)c(O)c(O)c1)c1cc(O)c(O)c(O)c1", "note": "[EGCG, epigallocatechin gallate]", "values": [
      {"measurement": "fertility of worms", "setting": "fah-1 RNAi treated worms", "value": "enhance the fertility of worms; also recorded: partially restore"},
      {"measurement": "total number of viable worms", "setting": "fah-1 RNAi treated worms", "value": "elevation of the total number of worms; also recorded: partially restore"},
      {"measurement": "tyrosine aggregates percentage (ProteoStat, FACS)", "setting": "[1]", "value": "dramatic reduction in the tyrosine aggregates percentage"},
      {"measurement": "growth of wild-type cells", "setting": "wild-type strain", "value": "no significant changes"},
      {"measurement": "phenylalanine aggregation and cytotoxicity of the assemblies in vitro", "setting": "phenylalanine assemblies", "value": "counteract"},
      {"measurement": "growth of aro3Δ mutant", "setting": "aro3Δ mutant; 4a.a SD with 0.03 mM tyrosine, different concentrations of EGCG", "value": "significant improvement in growth in a dose-dependent manner"},
      {"measurement": "lag phase of cell growth kinetics", "setting": "aro3Δ mutant; tyrosine in media, EGCG treated vs untreated cells", "value": "notably shorter"}
    ]},
    {"smiles": "N[C@@H](Cc1ccccc1)C(=O)O", "note": "[phenylalanine]", "values": [
      {"measurement": "RB857 worms that didn't reach adulthood by day 10", "setting": "[2]; 100 mM Phenylalanine", "value": "more than 90%"},
      {"measurement": "worms reaching adulthood on day 4", "setting": "[2]; RB857, 100 mM phenylalanine in minimal media", "value": "none of the worms reached adulthood on day 4"},
      {"measurement": "number of worms", "setting": "[2]; RB857, phenylalanine added", "value": "significantly reduced the number of worms"},
      {"measurement": "growth of aro4Δ mutant with phenylalanine in the medium", "setting": "aro4Δ mutant", "value": "growth inhibition"}
    ]},
    {"smiles": "CC[C@H](C)[C@H](N)C(=O)O", "note": "[isoleucine]", "values": [
      {"measurement": "growth with isoleucine in the growth medium", "setting": "lat1Δ", "value": "sensitivity"}
    ]}
  ]
}
